In US9650395B2, “Antibacterial compounds and methods for use” (PTC Therapeutics, Inc., priority 2011, dated 2017):
In brackets after ≈: the same amount, converted by molar mass. Where two headings read alike, the source gives them in different places.

Columns and labels:
[1] = test system: super sensitive Gram-negative Escherichia coli (E. coli) BAS849; assay: Antibacterial activity, microbroth dilution MIC, E. coli BAS849; assay type: cell-based; conditions: Escherichia coli, read-out: MIC, BAS849
[2] = test system: control Gram-negative E. coli 25922 strain; assay: Antibacterial activity, microbroth dilution MIC, E. coli 25922; assay type: cell-based, Escherichia coli; conditions: Escherichia coli; E. coli 25922, microbroth dilution; read-out: MIC, 25922
[3] = test system: Gram-positive Staphylococcus aureus (S. aureus) 29213; assay: Antibacterial activity, microbroth dilution MIC, S. aureus 29213; assay type: cell-based; conditions: Staphylococcus aureus; S. aureus 29213, microbroth dilution; read-out: MIC, 29213
[4] = test system: quinolone resistant E. coli LZ3111; assay: Antibacterial activity, MIC, quinolone resistant E. coli LZ3111; assay type: cell-based, Escherichia coli; conditions: Escherichia coli, read-out: MIC, LZ3111
Source text: (§1) The antibacterial activity from a microbroth dilution method may be presented as the minimum inhibitory concentration (MIC in […]). The MIC value is the lowest concentration of a drug which prevents macroscopically visible bacterial growth under test conditions.
Mutations in these regions are known to confer a high level resistance to the quinolone class of antibiotics.

[5] = test system: E. coli ELZ4000 (MDR clinical isolate); assay: Antibacterial activity, MIC, MDR E. coli ELZ4000; assay type: cell-based, Escherichia coli; conditions: Escherichia coli; E. coli ELZ4000, MDR clinical isolate; read-out: MIC ELZ4000
[6] = test system: E. coli ELZ4251 (MDR clinical isolate); assay: Antibacterial activity, MIC, MDR E. coli ELZ4251; assay type: cell-based, Escherichia coli; conditions: Escherichia coli, E. coli ELZ4251, MDR clinical isolate; read-out: MIC ELZ4251
[7] = test system: Pseudomonas aeruginosa (P. aeruginosa) 27853; assay: Antibacterial activity, MIC, P. aeruginosa 27853; assay type: cell-based; conditions: Pseudomonas aeruginosa, P. aeruginosa 27853; read-out: MIC 27853
Source text: as §1
Antibacterial activity of test compounds against the Gram-negative bacterium Pseudomonas aeruginosa (P. aeruginosa) 27853 is shown in Table 5.

[8] = test system: Moraxella catarrhalis (M. catarrhalis) 25238; assay: Antibacterial activity, MIC, M. catarrhalis 25238; assay type: cell-based; conditions: Moraxella catarrhalis, M. catarrhalis 25238; read-out: MIC 25238
[9] = test system: Neisseria meningitidis (N. meningitidis) 13090; assay: Antibacterial activity, MIC, N. meningitidis 13090; assay type: cell-based; conditions: Neisseria meningitidis; N. meningitidis 13090; read-out: MIC 13090
[10] = E. coli BAS849, microbroth dilution

Compound	MIC [1, 10] [µg/mL]	MIC [2] [µg/mL]	MIC [3] [µg/mL]	MIC [4] [µg/mL]	MIC [5] [µg/mL]	MIC [6] [µg/mL]	MIC [7] [µg/mL]	MIC [8] [µg/mL]	MIC [9] [µg/mL]	MIC [1] [µg/mL]
CCc1cc(C(=O)O)c(=O)[nH]c1-c1ccc(N2CCC(N(C)C)C2)cc1 (stereo not shown) [Cpd 149, 6-{4-[3-(dimethylamino)pyrrolidin-1-yl]phenyl}-5-ethyl-2-oxo-1,2-dihydropyridine-3-carboxylic acid]	< 1	1 to 3.5 (≈ 2.81 to 9.85 µM)	12.5 to 150 (≈ 35.2 to 422 µM)	12.5 to 150 (≈ 35.2 to 422 µM)	12.5 to 150 (≈ 35.2 to 422 µM)	12.5 to 150 (≈ 35.2 to 422 µM)	12.5 to 150 (≈ 35.2 to 422 µM)			
CCc1cc(C(=O)O)c(=O)[nH]c1-c1ccc(N2CCC(NCc3ccccc3)C2)cc1.Cl (stereo not shown) [Cpd 174, 6-{4-[3-(benzylamino)pyrrolidin-1-yl]phenyl}-5-ethyl-2-oxo-1,2-dihydropyridine-3-carboxylic acid hydrochloride]	< 1	< 1	12.5 to 150	12.5 to 150	12.5 to 150	12.5 to 150	12.5 to 150			
CCc1cc(C(=O)O)c(=O)[nH]c1-c1ccc(N2CC[C@H](F)C2)cc1 [Cpd 153, 5-ethyl-6-{4-[(3S)-3-fluoropyrrolidin-1-yl]phenyl}-2-oxo-1,2-dihydropyridine-3-carboxylic acid]	< 1	< 1	1 to 3.5 (≈ 3.03 to 10.6 µM)	12.5 to 150 (≈ 37.8 to 454 µM)	12.5 to 150 (≈ 37.8 to 454 µM)	12.5 to 150 (≈ 37.8 to 454 µM)	3.5 to 12.5 (≈ 10.6 to 37.8 µM)			
CCc1cc(C(=O)O)c(=O)[nH]c1-c1ccc(N)cc1 [Cpd 3, 6-(4-aminophenyl)-5-ethyl-2-oxo-1,2-dihydropyridine-3-carboxylic acid]	< 1	3.5 to 12.5 (≈ 13.6 to 48.4 µM)	12.5 to 150 (≈ 48.4 to 581 µM)	12.5 to 150 (≈ 48.4 to 581 µM)	12.5 to 150 (≈ 48.4 to 581 µM)	12.5 to 150 (≈ 48.4 to 581 µM)		< 1	< 1	
CCc1cc(C(=O)O)c(=O)[nH]c1-c1ccc(N2C[C@H](CN)[C@@H](C)C2)cc1 [Cpd 216, 6-{4-[(3S,4R)-3-(aminomethyl)-4-methylpyrrolidin-1-yl]phenyl}-5-ethyl-2-oxo-1,2-dihydropyridine-3-carboxylic acid]	12.5 to 150 (≈ 35.2 to 422 µM)	12.5 to 150 (≈ 35.2 to 422 µM)	12.5 to 150 (≈ 35.2 to 422 µM)	12.5 to 150 (≈ 35.2 to 422 µM)	12.5 to 150 (≈ 35.2 to 422 µM)	12.5 to 150 (≈ 35.2 to 422 µM)	12.5 to 150 (≈ 35.2 to 422 µM)			
CCc1cc(C(=O)O)c(=O)[nH]c1-c1ccc(N2C[C@H]3CC[C@@H](N)[C@H]3C2)cc1.O=C(O)C(F)(F)F [Cpd 202, 6-{4-[(3aR,4R,6aS)-4-aminohexahydrocyclopenta[c]pyrrol-2(1H)-yl]phenyl}-5-ethyl-2-oxo-1,2-dihydropyridine-3-carboxylic acid trifluoroacetate]		12.5 to 150	12.5 to 150	12.5 to 150	12.5 to 150	12.5 to 150	12.5 to 150			1 to 3.5
CCc1cc(C(=O)O)c(=O)[nH]c1-c1ccc(N2CCC(N)C2)cc1.O=C(O)C(F)(F)F (stereo not shown) [Cpd 131, 6-[4-(3-aminopyrrolidin-1-yl)phenyl]-5-ethyl-2-oxo-1,2-dihydropyridine-3-carboxylic acid trifluoroacetate]		3.5 to 12.5	12.5 to 150	12.5 to 150	12.5 to 150	12.5 to 150	12.5 to 150			< 1
CCc1c(-c2ccc(N3CC[C@H](F)C3)cc2)[nH]c(=O)c(C(=O)O)c1O [Cpd 85, 5-ethyl-6-{4-[(3S)-3-fluoropyrrolidin-1-yl]phenyl}-4-hydroxy-2-oxo-1,2-dihydropyridine-3-carboxylic acid]	< 1	12.5 to 150 (≈ 36.1 to 433 µM)	3.5 to 12.5 (≈ 10.1 to 36.1 µM)	12.5 to 150 (≈ 36.1 to 433 µM)	12.5 to 150 (≈ 36.1 to 433 µM)	12.5 to 150 (≈ 36.1 to 433 µM)	12.5 to 150 (≈ 36.1 to 433 µM)			
CCc1cc(C(=O)O)c(=O)[nH]c1-c1ccc(N2C[C@H]3CCN(C)[C@H]3C2)cc1.O=C(O)C(F)(F)F [Cpd 187, 5-ethyl-6-{4-[(3aR,6aR)-1-methylhexahydropyrrolo[3,4-b]pyrrol-5(1H)-yl]phenyl}-2-oxo-1,2-dihydropyridine-3-carboxylic acid trifluoroacetate]		3.5 to 12.5	12.5 to 150	12.5 to 150	12.5 to 150	12.5 to 150		1 to 3.5	< 1	< 1
CCc1c(-c2ccc(N3CCC(C)(CN)C3)cc2)[nH]c(=O)c(C(=O)O)c1O (stereo not shown) [Cpd 290, 6-{4-[3-(aminomethyl)-3-methylpyrrolidin-1-yl]phenyl}-5-ethyl-4-hydroxy-2-oxo-1,2-dihydropyridine-3-carboxylic acid]	< 1	1 to 3.5 (≈ 2.69 to 9.42 µM)	12.5 to 150 (≈ 33.7 to 404 µM)	3.5 to 12.5 (≈ 9.42 to 33.7 µM)	12.5 to 150 (≈ 33.7 to 404 µM)	3.5 to 12.5 (≈ 9.42 to 33.7 µM)	12.5 to 150 (≈ 33.7 to 404 µM)			
CCc1cc(C(=O)O)c(=O)[nH]c1-c1ccc(N2CCC(N=[N+]=[N-])C2)cc1 (stereo not shown) [Cpd 129, 6-[4-(3-azidopyrrolidin-1-yl)phenyl]-5-ethyl-2-oxo-1,2-dihydropyridine-3-carboxylic acid]	< 1	1 to 3.5 (≈ 2.83 to 9.9 µM)	3.5 to 12.5 (≈ 9.9 to 35.4 µM)	12.5 to 150 (≈ 35.4 to 424 µM)	12.5 to 150 (≈ 35.4 to 424 µM)	12.5 to 150 (≈ 35.4 to 424 µM)	12.5 to 150 (≈ 35.4 to 424 µM)			
CCc1cc(C(=O)O)c(=O)[nH]c1-c1ccc(N2CC=CC2)cc1 [Cpd 301, 6-[4-(2,5-dihydro-1H-pyrrol-1-yl)phenyl]-5-ethyl-2-oxo-1,2-dihydropyridine-3-carboxylic acid]	< 1	< 1	< 1	12.5 to 150 (≈ 40.3 to 483 µM)	12.5 to 150 (≈ 40.3 to 483 µM)	12.5 to 150 (≈ 40.3 to 483 µM)	3.5 to 12.5 (≈ 11.3 to 40.3 µM)			
CCc1cc(C(=O)O)c(=O)[nH]c1-c1ccc(N2C[C@H]3CCC[C@H](N=[N+]=[N-])[C@H]3C2)cc1.O=C(O)C(F)(F)F [Cpd 244, 6-{4-[(3aR,4S,7aS)-4-azidooctahydro-2H-isoindol-2-yl]phenyl}-5-ethyl-2-oxo-1,2-dihydropyridine-3-carboxylic acid trifluoroacetate]		12.5 to 150	1 to 3.5	12.5 to 150	12.5 to 150	12.5 to 150	12.5 to 150			< 1
CCc1cc(C(=O)O)c(=O)[nH]c1-c1ccc(N2C[C@H]3CCC[C@H](N)[C@H]3C2)cc1.O=C(O)C(F)(F)F [Cpd 203, 6-{4-[(3aR,4S,7aS)-4-aminooctahydro-2H-isoindol-2-yl]phenyl}-5-ethyl-2-oxo-1,2-dihydropyridine-3-carboxylic acid trifluoroacetate]		12.5 to 150	12.5 to 150	12.5 to 150	12.5 to 150	12.5 to 150	12.5 to 150			1 to 3.5
CCc1cc(C(=O)O)c(=O)[nH]c1-c1ccc(N2CCC(F)C2)cc1 (stereo not shown) [Cpd 152, 5-ethyl-6-[4-(3-fluoropyrrolidin-1-yl)phenyl]-2-oxo-1,2-dihydropyridine-3-carboxylic acid]	< 1	1 to 3.5 (≈ 3.03 to 10.6 µM)	3.5 to 12.5 (≈ 10.6 to 37.8 µM)	12.5 to 150 (≈ 37.8 to 454 µM)	12.5 to 150 (≈ 37.8 to 454 µM)	12.5 to 150 (≈ 37.8 to 454 µM)	3.5 to 12.5 (≈ 10.6 to 37.8 µM)			
CCc1c(-c2ccc(N3CC(N)C4(CC4)C3)cc2)[nH]c(=O)c(C(=O)O)c1O.O=C(O)C(F)(F)F (stereo not shown) [Cpd 252, 6-[4-(7-amino-5-azaspiro[2.4]hept-5-yl)phenyl]-5-ethyl-4-hydroxy-2-oxo-1,2-dihydropyridine-3-carboxylic acid trifluoroacetate]		1 to 3.5	12.5 to 150	3.5 to 12.5	12.5 to 150	12.5 to 150	12.5 to 150			< 1
CCc1cc(C(=O)O)c(=O)[nH]c1-c1ccc(N2CCCC2C)cc1 (stereo not shown) [Cpd 139, 5-ethyl-6-[4-(2-methylpyrrolidin-1-yl)phenyl]-2-oxo-1,2-dihydropyridine-3-carboxylic acid]	< 1	3.5 to 12.5 (≈ 10.7 to 38.3 µM)	3.5 to 12.5 (≈ 10.7 to 38.3 µM)	12.5 to 150 (≈ 38.3 to 460 µM)	12.5 to 150 (≈ 38.3 to 460 µM)	12.5 to 150 (≈ 38.3 to 460 µM)	12.5 to 150 (≈ 38.3 to 460 µM)			
CCc1cc(C(=O)O)c(=O)[nH]c1-c1ccc(N(C)c2ccccc2)cc1 [Cpd 158, 5-ethyl-6-{4-[methyl(phenyl)amino]phenyl}-2-oxo-1,2-dihydropyridine-3-carboxylic acid]	< 1	3.5 to 12.5 (≈ 10 to 35.9 µM)	3.5 to 12.5 (≈ 10 to 35.9 µM)	12.5 to 150 (≈ 35.9 to 431 µM)	12.5 to 150 (≈ 35.9 to 431 µM)	12.5 to 150 (≈ 35.9 to 431 µM)	12.5 to 150 (≈ 35.9 to 431 µM)			
CCc1cc(C(=O)O)c(=O)[nH]c1-c1ccc(N(C)C)cc1F [Cpd 53, 6-[4-(dimethylamino)-2-fluorophenyl]-5-ethyl-2-oxo-1,2-dihydropyridine-3-carboxylic acid]	< 1	1 to 3.5 (≈ 3.29 to 11.5 µM)	12.5 to 150 (≈ 41.1 to 493 µM)					< 1		
CCc1cc(C(=O)O)c(=O)[nH]c1-c1ccc(N2CCCC2)cc1F [Cpd 38, 5-ethyl-6-[2-fluoro-4-(pyrrolidin-1-yl)phenyl]-2-oxo-1,2-dihydropyridine-3-carboxylic acid]	< 1	1 to 3.5 (≈ 3.03 to 10.6 µM)	3.5 to 12.5 (≈ 10.6 to 37.8 µM)	12.5 to 150 (≈ 37.8 to 454 µM)	12.5 to 150 (≈ 37.8 to 454 µM)	12.5 to 150 (≈ 37.8 to 454 µM)		< 1		
